Measurements published in patent publication US8822500B2, “Tyrosine kinase inhibitors” (Chembridge Corporation, priority 2008, dated 2014).
Read-outs that look alike come from different tables or passages of the source. Blank lines part the entries; values can stand above or below the compound they belong to.

Experiments:
K299 lymphoma cells = assay: Cellular assay, 3 day cell viability (WST-1); format: cell-based; conditions: 3 days
U937 lymphoma cells = assay: Cellular assay, 3 day cell viability (WST-1); format: cell-based; conditions: Homo sapiens, U-937, 72 h, 3 days, WST-1
ALK = ALK (Homo sapiens (Human), UniProt Q9UM73); assay: In vitro kinase activity assay (LANCE TR-FRET); format: biochemical;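 further: kinase reactions with ATP and a poly-GT peptide substrate, phosphorylated product read by time-resolved FRET, 11-point curve from 10^−11 to 10^−5 M, DMSO as negative control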
INSR = INSR (Homo sapiens (Human), UniProt P06213); assay: In vitro kinase activity assay (LANCE TR-FRET); format: biochemical
EML4-ALK BaF3 cells = assay: BaF3 stables cell viability (WST-1)
ALK (WT) = ALK (WT) (Homo sapiens (Human), UniProt Q9UM73); assay: Cell free kinase assay (Carna Biosciences kinases); format: biochemical
[1] = target: T1, hERG (human ether-a-go-go related gene) potassium channel (Homo sapiens (Human), UniProt Q12809); conditions: 5 min
[2] = target: T1, hERG (human ether-a-go-go related gene) potassium channel; assay: hERG potassium channel current, automated patch clamp (PatchXpress 7000A);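 further: Four-point series of 0.3, 3, 10 and 30 µM, two cells recorded per concentration, 5 min exposure at each level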
hERG potassium channel [3] = target: T2, hERG potassium channel (Homo sapiens (Human), UniProt Q12809); assay: in vitro
SUDHL-1 lymphoma cells = assay: Cellular assay, 3 day cell viability (WST-1); format: cell-based; conditions: 3 days, WST-1
TrkB = TrkB (Homo sapiens (Human), UniProt Q16620); assay: In vitro kinase activity assay (LANCE TR-FRET); format: biochemical
TrkA = TrkA (Homo sapiens (Human), UniProt P04629); assay: In vitro kinase activity assay (LANCE TR-FRET); format: biochemical;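 further: kinase reaction with poly-GT peptide substrate and ATP, phosphorylated product quantified by time-resolved FRET, eleven-point dose curves from 10^−11 to 10^−5 M in triplicate, DMSO as negative control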
TrkC = TrkC (Homo sapiens (Human), UniProt Q16288); assay: In vitro kinase activity assay (LANCE TR-FRET); format: biochemical; conditions: read-out: GTx-TrKC IC50
in vitro [4] = conditions: human, microsomes; for microsomal CLint at 0.5 μM: pH 7.4, Human LM-P1 CL (ul/min/mg); for half-life at 0.5 μM: pH 7.4, Human LM-P1 Half-life (min)
IGF1R = IGF1R (Homo sapiens (Human), UniProt P08069); assay: In vitro kinase activity assay (LANCE TR-FRET); format: biochemical
[5] = Metabolic stability, Phase I microsome reactions; format: in vitro ADME, mouse; conditions: mouse, pH 7.4, Phase I only, 1.0 mg/ml microsomes, read-out: Mouse LM-P1 Half-life;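 on Rat LM-P1 Half-life (min): compound at 0.5 µM incubated with rat liver microsomes (1.0 mg/ml protein) plus NADPH regenerating system at 37 °C, sampled up to 60 min, remaining parent quantified by LC-MS/MS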
in vitro [6] = conditions: rat, microsomes; for half-life at 0.5 μM: pH 7.4; for microsomal CLint at 0.5 μM: pH 7.4, Rat LM-P1 CL (ul/min/mg)
[7] = Caco-2 cell permeation study; format: in vitro ADME; conditions: human, Caco-2, 10 μM;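 further: Caco-2 monolayers grown for 21–28 days with integrity confirmed by TEER, apical buffer HBSS with MES, basolateral buffer HBSS with HEPES, compound levels quantified by LC/MS/MS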
hERG potassium channel [8] = target: T2, hERG potassium channel; assay: hERG potassium channel current, automated patch clamp (PatchXpress 7000A); conditions: human; for inhibition at 5 min, 30 µM: 30 μM (low solubility at this concentration);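 on all read-outs here: Four-point series of 0.3, 3, 10 and 30 µM, two cells recorded per concentration, 5 min exposure at each level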
ROS = ROS (Homo sapiens (Human), UniProt P08922); assay: In vitro kinase activity assay (LANCE TR-FRET); format: biochemical; conditions: read-out: ROS (nM) IC50
[9] = test system: NPM-ALK R1275Q BaF3 cells; assay: BaF3 stables cell viability (WST-1); conditions: Mus musculus, BaF3, read-out: BaF3 Stables IC50 nM R1275Q
[10] = Guinea pig pharmacokinetics; conditions: for AUC(0-t): plasma, 10 mg/kg
[11] = microsomes, 0.5 μM, pH 7.4
Mouse pharmacokinetics = conditions: for AUC: plasma, 10 mg/kg
FLT3-ITD BaF3 cells = assay: BaF3 stables cell viability (WST-1); conditions: Mus musculus, BaF3, read-out: BaF3 Stables IC50 nM FLT3-ITD
[12] = Metabolic stability, Phase I microsome reactions; conditions: rat, microsomes;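 on Rat LM-P1 Half-life (min): compound at 0.5 µM incubated with rat liver microsomes (1.0 mg/ml protein) plus NADPH regenerating system at 37 °C, sampled up to 60 min, remaining parent quantified by LC-MS/MS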
NB-1 neuroblastoma cells = assay: Cellular assay, 3 day cell viability (WST-1); format: cell-based; conditions: 72 h, 3 days, WST-1, read-out: NB-1 IC50
RET = RET (Homo sapiens (Human), UniProt P07949); assay: In vitro kinase activity assay (LANCE TR-FRET); format: biochemical; conditions: read-out: RET (nM) IC50
[13] = Rat pharmacokinetics / bioavailability; format: in vivo
[14] = test system: EML4-ALK R1275Q BaF3 cells; assay: BaF3 stables cell viability (WST-1); conditions: read-out: BaF3 Stables IC50 nM R1275Q; EML4-ALK construct
[15] = microsomes, 0.5 μM, pH 7.4; remark: listed apart in the source
[16] = test system: EML4-ALK C1156Y BaF3 cells; assay: BaF3 stables cell viability (WST-1); conditions: read-out: BaF3 Stables IC50 nM C1156Y; EML4-ALK construct
[17] = Individual Data Points (% Inhibition)
[18] = male, Sprague-Dawley, plasma, iv, 10 mg/kg I.V.
[19] = male, Sprague-Dawley, plasma, po, 10 mg/kg P.O.
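Wherever Human LM-P1 Half-life (min) is given: liver microsomes at 1.0 mg/ml with NADPH regenerating system, 37 °C, sampled at 0, 5, 10, 30 and 60 min, parent compound quantified by LC-MS/MS.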

TrkA, sequence (P04629 33-796): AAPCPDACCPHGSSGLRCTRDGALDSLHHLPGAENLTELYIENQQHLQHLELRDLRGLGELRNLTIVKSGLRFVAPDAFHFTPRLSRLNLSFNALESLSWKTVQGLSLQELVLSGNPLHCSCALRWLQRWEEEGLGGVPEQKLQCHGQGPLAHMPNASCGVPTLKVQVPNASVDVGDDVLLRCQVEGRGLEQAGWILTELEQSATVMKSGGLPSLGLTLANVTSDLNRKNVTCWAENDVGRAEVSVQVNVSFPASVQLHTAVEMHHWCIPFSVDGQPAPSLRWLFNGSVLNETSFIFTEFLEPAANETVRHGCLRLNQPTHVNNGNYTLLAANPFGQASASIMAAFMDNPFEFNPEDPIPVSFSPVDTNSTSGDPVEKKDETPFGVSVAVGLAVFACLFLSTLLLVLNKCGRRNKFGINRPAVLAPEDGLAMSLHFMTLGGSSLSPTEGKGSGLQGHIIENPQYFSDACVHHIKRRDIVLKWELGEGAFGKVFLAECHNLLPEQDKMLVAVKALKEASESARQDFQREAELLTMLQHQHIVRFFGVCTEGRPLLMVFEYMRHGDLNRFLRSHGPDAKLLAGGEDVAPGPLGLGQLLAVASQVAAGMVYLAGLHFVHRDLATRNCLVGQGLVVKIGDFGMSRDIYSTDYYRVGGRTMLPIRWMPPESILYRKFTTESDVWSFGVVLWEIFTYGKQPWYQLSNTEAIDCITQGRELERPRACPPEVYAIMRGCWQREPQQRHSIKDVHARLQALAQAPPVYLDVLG
T1 sequence (Q12809 whole entry): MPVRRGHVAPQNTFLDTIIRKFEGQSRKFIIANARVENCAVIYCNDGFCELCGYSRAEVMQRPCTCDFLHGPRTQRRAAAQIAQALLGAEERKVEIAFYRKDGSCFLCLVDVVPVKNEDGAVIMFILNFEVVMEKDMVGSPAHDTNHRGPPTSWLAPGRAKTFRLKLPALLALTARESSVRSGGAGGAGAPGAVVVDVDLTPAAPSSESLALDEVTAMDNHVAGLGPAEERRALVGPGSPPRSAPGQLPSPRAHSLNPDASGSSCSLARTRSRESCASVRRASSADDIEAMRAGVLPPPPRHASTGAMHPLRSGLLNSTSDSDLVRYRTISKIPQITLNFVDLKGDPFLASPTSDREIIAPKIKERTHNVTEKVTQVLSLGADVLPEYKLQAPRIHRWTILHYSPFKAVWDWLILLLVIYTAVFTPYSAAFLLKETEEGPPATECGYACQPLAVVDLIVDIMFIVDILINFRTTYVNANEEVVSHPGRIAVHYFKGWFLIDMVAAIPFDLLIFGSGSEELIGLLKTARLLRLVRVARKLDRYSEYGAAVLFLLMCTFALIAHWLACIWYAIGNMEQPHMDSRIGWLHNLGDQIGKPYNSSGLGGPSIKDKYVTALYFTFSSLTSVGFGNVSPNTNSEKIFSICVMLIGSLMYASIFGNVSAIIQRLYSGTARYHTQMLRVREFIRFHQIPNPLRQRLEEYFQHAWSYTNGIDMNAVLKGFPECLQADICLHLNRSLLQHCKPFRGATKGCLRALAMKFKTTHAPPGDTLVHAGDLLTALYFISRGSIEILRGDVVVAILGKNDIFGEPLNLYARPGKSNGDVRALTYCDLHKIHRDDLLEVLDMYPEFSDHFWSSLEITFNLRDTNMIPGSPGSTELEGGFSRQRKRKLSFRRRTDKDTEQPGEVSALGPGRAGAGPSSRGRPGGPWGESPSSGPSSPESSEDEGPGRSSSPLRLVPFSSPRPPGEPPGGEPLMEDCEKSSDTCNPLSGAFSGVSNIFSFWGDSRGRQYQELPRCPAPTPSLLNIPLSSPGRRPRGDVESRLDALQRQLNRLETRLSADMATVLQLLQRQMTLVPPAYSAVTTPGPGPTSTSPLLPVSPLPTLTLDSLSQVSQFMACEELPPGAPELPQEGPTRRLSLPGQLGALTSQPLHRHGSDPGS
T2 sequence (Q12809 whole entry): as above
ALK, sequence (Q9UM73 19-1620): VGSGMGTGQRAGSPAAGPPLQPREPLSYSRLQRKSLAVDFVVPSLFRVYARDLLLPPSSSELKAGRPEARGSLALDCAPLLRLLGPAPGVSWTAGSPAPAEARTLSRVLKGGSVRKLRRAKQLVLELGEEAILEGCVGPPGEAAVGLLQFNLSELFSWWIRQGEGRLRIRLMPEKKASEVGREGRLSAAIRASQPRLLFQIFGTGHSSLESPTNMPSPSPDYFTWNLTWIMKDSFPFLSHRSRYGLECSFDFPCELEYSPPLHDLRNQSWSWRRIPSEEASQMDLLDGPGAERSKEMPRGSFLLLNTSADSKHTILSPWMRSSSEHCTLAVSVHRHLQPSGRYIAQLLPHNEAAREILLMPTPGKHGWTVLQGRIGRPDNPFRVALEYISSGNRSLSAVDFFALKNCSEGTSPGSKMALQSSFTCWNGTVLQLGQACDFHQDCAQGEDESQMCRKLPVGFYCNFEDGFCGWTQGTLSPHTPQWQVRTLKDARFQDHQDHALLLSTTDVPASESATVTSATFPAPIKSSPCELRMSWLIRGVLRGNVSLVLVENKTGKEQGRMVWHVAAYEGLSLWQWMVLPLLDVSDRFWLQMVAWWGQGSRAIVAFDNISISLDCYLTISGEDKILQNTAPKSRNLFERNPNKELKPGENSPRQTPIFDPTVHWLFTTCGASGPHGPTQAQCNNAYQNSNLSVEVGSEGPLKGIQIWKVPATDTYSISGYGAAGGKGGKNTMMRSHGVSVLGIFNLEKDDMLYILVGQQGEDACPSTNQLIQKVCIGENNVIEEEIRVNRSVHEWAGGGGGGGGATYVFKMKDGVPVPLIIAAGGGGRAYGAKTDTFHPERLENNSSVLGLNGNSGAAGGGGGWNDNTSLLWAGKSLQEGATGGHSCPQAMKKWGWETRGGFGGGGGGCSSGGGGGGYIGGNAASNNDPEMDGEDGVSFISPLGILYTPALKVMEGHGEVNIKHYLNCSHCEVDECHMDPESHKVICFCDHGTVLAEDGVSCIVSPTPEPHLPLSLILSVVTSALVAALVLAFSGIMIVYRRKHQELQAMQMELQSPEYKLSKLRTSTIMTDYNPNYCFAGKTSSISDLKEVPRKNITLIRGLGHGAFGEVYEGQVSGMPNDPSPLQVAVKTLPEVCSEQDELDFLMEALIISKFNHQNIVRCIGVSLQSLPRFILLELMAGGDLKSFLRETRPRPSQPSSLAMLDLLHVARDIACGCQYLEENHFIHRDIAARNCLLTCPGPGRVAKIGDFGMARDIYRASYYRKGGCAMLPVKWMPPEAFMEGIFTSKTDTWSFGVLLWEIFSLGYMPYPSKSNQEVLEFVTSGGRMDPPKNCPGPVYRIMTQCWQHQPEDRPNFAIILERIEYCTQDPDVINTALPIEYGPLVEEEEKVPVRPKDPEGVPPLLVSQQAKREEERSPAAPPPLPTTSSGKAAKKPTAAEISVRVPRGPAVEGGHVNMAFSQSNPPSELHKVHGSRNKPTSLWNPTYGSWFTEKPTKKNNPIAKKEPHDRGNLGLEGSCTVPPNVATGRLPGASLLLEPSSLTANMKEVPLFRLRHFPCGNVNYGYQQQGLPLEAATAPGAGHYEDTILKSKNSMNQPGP

Compound: COc1cc([C@@H]2c3cc4c(cc3[C@H](O)[C@H]3COC(=O)[C@@H]23)OCO4)cc(OC)c1OC (racemic) [PPP, reference compound]
IC50 (K299 lymphoma cells; 72 h, read-out: GTx-K299 IC50): 196 nM
IC50 (K299 lymphoma cells; 72 h, read-out: K299 IC50): 196 nM
IC50 (U937 lymphoma cells; read-out: GTx-U937 IC50): 138 nM
IC50 (U937 lymphoma cells; read-out: U937 IC50): 138 nM
IC50 (ALK; read-out: ALK IC50): > 10000 nM
IC50 (ALK; read-out: GTx-ALK IC50): > 10000 nM
IC50 (INSR; read-out: GTx-IRK IC50): > 10000 nM

Compound: C[C@@H](Cc1c(F)c(F)cc(F)c1F)Nc1cc[nH]c(=O)c1-c1nc2cc3c(cc2[nH]1)CN(CCN(C)C)C3=O (single isomer, unassigned) [Compound 1 R isomer]
IC50 (EML4-ALK BaF3 cells; Mus musculus, BaF3, read-out: BaF3 Stables IC50 nM EML4-ALK): 1060 nM
cell free activity (in words) (ALK (WT)): inactive

Compound: C[C@@H](Cc1c(F)c(F)cc(F)c1F)Nc1cc[nH]c(=O)c1-c1nc2cc3c(cc2[nH]1)CN(CCN1CCCC1)C3=O [Compound 3]
Individual Data Points (% Inhibition) ([1]; 0.3 µM): 11.2%
Individual Data Points (% Inhibition) ([1]; 3 µM): 49.7%
Individual Data Points (% Inhibition) ([1]; 10 µM): 70.8%
Individual Data Points (% Inhibition) ([1]; 30 µM): 81.7%
IC50 [2]: 3170 nM
inhibition at 5 min, 0.3 µM (hERG potassium channel [3]; [17]): 13.2%
inhibition at 5 min, 3 µM (hERG potassium channel [3]; [17]): 49.1%
inhibition at 5 min, 10 µM (hERG potassium channel [3]; [17]): 75.7%
inhibition at 5 min, 30 µM (hERG potassium channel [3]; [17]): 87.2%
inhibition at 5 min, 0.3 µM (hERG potassium channel [3]; Mean % hERG Inhibition): 12.2%
inhibition at 5 min, 3 µM (hERG potassium channel [3]; Mean % hERG Inhibition): 49.4%
inhibition at 5 min, 10 µM (hERG potassium channel [3]; Mean % hERG Inhibition): 73.3%
inhibition at 5 min, 30 µM (hERG potassium channel [3]; Mean % hERG Inhibition): 84.4%

IC50 (K299 lymphoma cells; 72 h, read-out: GTx-K299 IC50): 798 nM
IC50 (SUDHL-1 lymphoma cells; Homo sapiens, SU-DHL-1, 72 h, read-out: GTx-SUDHL-1 IC50): 829 nM
IC50 (TrkB; read-out: GTx-TrKB IC50): 4 nM
IC50 (TrkA; read-out: GTx-TrKA IC50): 4 nM
IC50 (U937 lymphoma cells; read-out: GTx-U937 IC50): > 3000 nM
IC50 (ALK; read-out: GTx-ALK IC50): 37 nM
IC50 (TrkC): 1 nM
Compound: Cc1ccc(F)cc1CC(C)Nc1cc[nH]c(=O)c1-c1nc2cc3c(cc2[nH]1)CN(C)C3=O (centres unmarked) [Compound 44, 2-(4-(1-(5-Fluoro-2-methylphenyl)propan-2-ylamino)-2-oxo-1,2-dihydropyridin-3-yl)-6-methyl-6,7-dihydroimidazo[4,5-f]isoindol-5(1H)-one]

IC50 (K299 lymphoma cells; 72 h, read-out: K299 IC50): 154 nM
microsomal CLint at 0.5 μM (in vitro [4]): < 5.8 µL/min/mg
half-life at 0.5 μM (in vitro [4]): > 2 h
IC50 (TrkA; read-out: TrKA IC50): 4 nM
IC50 (U937 lymphoma cells; read-out: U937 IC50): 2200 nM
IC50 (IGF1R): 299 nM
IC50 (ALK; read-out: ALK IC50): 1 nM
IC50 (INSR; read-out: IRK IC50): 578 nM
half-life at 0.5 μM ([5]; liver microsomes): 0.484 h
half-life at 0.5 μM (in vitro [6]): 8.7 min
microsomal CLint at 0.5 μM (in vitro [6]): 79.9 µL/min/mg
Compound: C[C@@H](Cc1cc(F)cc(F)c1F)Nc1cc[nH]c(=O)c1-c1nc2cc3c(cc2[nH]1)CN(CCN(C)C)C3=O [Compound 31]

Compound: C[C@@H](Cc1c(F)c(F)cc(F)c1F)Nc1cc[nH]c(=O)c1-c1nc2cc3c(cc2[nH]1)CN(CCN(C)C)C3=O [Compound 1, (S)-6-(2-(Dimethylamino)ethyl)-2-(2-oxo-4-((1-(2,3,5,6-tetrafluorophenyl)propan-2-yl)amino)-1,2-dihydropyridin-3-yl)-6,7-dihydroimidazo[4,5-f]isoindol-5(3H)-one]
Papp A→B at 2 h, 10 μM ([7]; apical pH 6.5, 2 h): < 0.2 ×10⁻⁶ cm/s
Papp B→A at 2 h, 10 μM ([7]; basolateral pH 7.4, 2 h): 19.9 ×10⁻⁶ cm/s
IC50 [2]: 6250 nM
Individual Data Points (% Inhibition) ([2]; 0.3 μM): 5.0%
Individual Data Points (% Inhibition) ([2]; 3 μM): 36.3%
Individual Data Points (% Inhibition) ([2]; 10 μM): 49.4%
Individual Data Points (% Inhibition) ([2]; 30 μM (low solubility at this concentration)): 62.7%
inhibition at 5 min, 0.3 µM (hERG potassium channel [8]; [17]): 5.9%
inhibition at 5 min, 3 µM (hERG potassium channel [8]; [17]): 43.6%
inhibition at 5 min, 10 µM (hERG potassium channel [8]; [17]): 59.4%
inhibition at 5 min, 30 µM (hERG potassium channel [8]; [17]): 71.1%
inhibition at 5 min, 0.3 µM (hERG potassium channel [8]; Mean % hERG Inhibition): 5.5%
inhibition at 5 min, 3 µM (hERG potassium channel [8]; Mean % hERG Inhibition): 39.9%
inhibition at 5 min, 10 µM (hERG potassium channel [8]; Mean % hERG Inhibition): 54.4%
inhibition at 5 min, 30 µM (hERG potassium channel [8]; Mean % hERG Inhibition): 66.9%
IC50 (K299 lymphoma cells; 72 h, read-out: K299 IC50): 76 nM
IC50 (K299 lymphoma cells; read-out: K299 IC50): 73 nM
IC50 (ROS): 0.205 nM
IC50 [9]: 279 ± 21 nM
IC50 (SUDHL-1 lymphoma cells; read-out: SUDHL-1 IC50): 22 nM
IC50 (TrkB; read-out: TrkB (nM) IC50): 2.06 nM
F ([10]; 10 mg/kg PO): 1%
AUC(0-t) ([10]; iv): 3570 ng·h/mL
AUC(0-t) ([10]; po): 37.2 ng·h/mL
microsomal CLint at 0.5 μM (in vitro [4]): 5.87 µL/min/mg
half-life at 0.5 μM (in vitro [4]): 1.97 h
IC50 (U937 lymphoma cells; read-out: U937 IC50): 1600 nM
Human LM-P1 Half-life [11]: >2 h
F (Dog pharmacokinetics; 5 mg/kg PO): 12%
AUC(0-t) (Dog pharmacokinetics; plasma, iv, 1 mg/kg): 483 ng·h/mL
AUC (Dog pharmacokinetics; plasma, po, 5 mg/kg): 287 ng·h/mL
F (Mouse pharmacokinetics; 10 mg/kg SC): 30%
AUC (Mouse pharmacokinetics; iv): 1770 ng·h/mL
AUC (Mouse pharmacokinetics; sc): 522 ng·h/mL
IC50 (FLT3-ITD BaF3 cells): > 3 nM
microsomal CLint at 0.5 μM ([12]; pH 7.4): 100 µL/min/mg
half-life at 0.5 μM ([12]; pH 7.4, Rat LM-P1 Half-life (min), Phase I only, 0.5 μM, 1.0 mg/ml microsomes): 6.99 min
IC50 (NB-1 neuroblastoma cells): 177 nM
IC50 (RET): 3.53 nM
half-life at 0.5 μM [5]: 0.14 h
half-life at 0.5 μM (in vitro [6]): 8.43 min
microsomal CLint at 0.5 μM (in vitro [6]): 82.2 µL/min/mg
IV_AUC0-1440 Rat 10 mpk ([13]; 10 mg/kg I.V.): 329 µg·min/mL
PO_AUC0-1440 Rat 10 mpk ([13]; 10 mg/kg P.O.): 0.943 µg·min/mL
MRT [13, 18]: 22.7 h
clearance [13, 18]: 25.5 mL/min/kg
half-life [13, 18]: 22.1 h
Vd ([13]; male, Sprague-Dawley, plasma, iv, 10 mg/kg I.V., read-out: Vss): 23.9 L/kg
Cmax [13, 19]: 2.21 ng/mL
Tmax [13, 19]: 1.88 h
bioavailability ([13]; male, Sprague-Dawley, plasma, po, 10 mg/kg P.O., read-out: Rat F %): 0.287%

IC50 (EML4-ALK BaF3 cells; read-out: BaF3 Stables IC50 nM EML4-ALK, EML4-ALK parent construct): 143 ± 6 nM
IC50 (TrkA; read-out: TrkA (nM) IC50): 5 nM
IC50 [14]: 288 ± 20 nM
IC50 (ALK; read-out: ALK (nM) IC50): 9.81 nM
IC50 (ALK; read-out: GTx-ALK IC50): 10 nM
Rat LM-P1 Half-life [15]: >2 h
IC50 [16]: 283 ± 43 nM
Compound: (S)-6-(1-Methylpiperidin-4-yl)-2-(2-oxo-4-(1-(2,3,5,6-tetrafluorophenyl)propan-2-ylamino)-1,2-dihydropyridin-3-yl)-6,7-dihydroimidazo[4,5-f]isoindol-5(3H)-one [Compound 4]
